Where “and” joins values, the source holds several entries; their conditions need not be identical. Equal entries are not always repeated.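 Each compound was tested at five concentrations against cells in 96-well plates for 48 hours. GI50 = concentration required for 50% inhibition of growth. TGI marks complete inhibition of growth.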
Legend:
Assay in all cases: growth of human tumour cells (NCI), 48 h
SN12C renal = system: SN12C renal
EKVX NSCLC = system: EKVX NSCLC
HL-60(TB) leukemia = system: HL-60(TB) leukemia
IGROV1 ovarian = system: IGROV1 ovarian
NCI/ADR-RES ovarian = system: NCI/ADR-RES ovarian
ACHN renal = system: ACHN renal
NCI-H226 lung = system: NCI-H226 lung
A498 renal = system: A498 renal
MDA-MB-435 = system: MDA-MB-435
CAKI-1 renal = system: CAKI-1 renal
SK-MEL-5 melanoma = system: SK-MEL-5 melanoma
LOX IMVI melanoma = system: LOX IMVI melanoma
SF-268 CNS = system: SF-268 CNS
OVCAR-5 ovarian = system: OVCAR-5 ovarian
BT-549 breast = system: BT-549 breast
RXF 393 renal = system: RXF 393 renal
MDA-MB-231 breast = system: MDA-MB-231 breast
HCT-15 colon = system: HCT-15 colon
CCRF-CEM leukemia = system: CCRF-CEM leukemia
SR leukemia = system: SR leukemia
OVCAR-8 ovarian = system: OVCAR-8 ovarian
HT29 colon = system: HT29 colon
KM12 colon = system: KM12 colon
NCI-H460 lung = system: NCI-H460 lung
HCT-116 colon = system: HCT-116 colon
786-0 renal = system: 786-0 renal
UO-31 renal = system: UO-31 renal
SF-295 CNS = system: SF-295 CNS
SW-620 colon = system: SW-620 colon
HCC-2998 colon = system: HCC-2998 colon
PC-3 prostate = system: PC-3 prostate
HOP-92 NSCLC = system: HOP-92 NSCLC
U251 CNS = system: U251 CNS
SK-MEL-28 melanoma = system: SK-MEL-28 melanoma
UACC-62 melanoma = system: UACC-62 melanoma
DU-145 prostate = system: DU-145 prostate
MOLT-4 leukemia = system: MOLT-4 leukemia
SNB-19 CNS = system: SNB-19 CNS
NCI-H522 lung = system: NCI-H522 lung
MALME-3M melanoma = system: MALME-3M melanoma
OVCAR-4 ovarian = system: OVCAR-4 ovarian
M14 melanoma = system: M14 melanoma
UACC-257 melanoma = system: UACC-257 melanoma
A549 NSCLC = system: A549 NSCLC
TK-10 renal = system: TK-10 renal
HOP-62 NSCLC = system: HOP-62 NSCLC
HS 578T breast = system: HS 578T breast
MCF7 breast = system: MCF7 breast
SK-OV-3 ovarian = system: SK-OV-3 ovarian
OVCAR-3 ovarian = system: OVCAR-3 ovarian
SF-539 CNS = system: SF-539 CNS
SK-MEL-2 melanoma = system: SK-MEL-2 melanoma
T-47D breast = system: T-47D breast
NCI-H23 lung = system: NCI-H23 lung
COLO 205 colon = system: COLO 205 colon
RPMI-8226 leukemia = system: RPMI-8226 leukemia

For `COc1ccc2c(c1)nnn1c3ncccc3c(N=O)c21`, the GI50 (SN12C renal) was 1.4 µM and 2.06 µM, the TGI (SN12C renal) was 8.1 µM and 9.82 µM and the GI50 (EKVX NSCLC) was 3.38 µM and 3.82 µM. For the same compound, the TGI (EKVX NSCLC) was 25.3 µM and 61.8 µM, the GI50 (HL-60(TB) leukemia) was 0.0433 µM and 0.359 µM and the GI50 (IGROV1 ovarian) was 0.114 µM and 1.09 µM. The GI50 (NCI/ADR-RES ovarian) was 1.42 µM and 1.28 µM, the TGI (NCI/ADR-RES ovarian) was 10.6 µM and 12.6 µM and the GI50 (ACHN renal) was 0.374 µM. The TGI (ACHN renal) was greater than 100 µM, the GI50 (NCI-H226 lung) was 4.14 µM and 11.6 µM and the TGI (NCI-H226 lung) was 13.1 µM and 47.7 µM. The GI50 (A498 renal) was 1.27 µM and 6.23 µM, the TGI (A498 renal) was 6.26 µM and 22.5 µM and the GI50 (MDA-MB-435) was 1.94 µM and 2.05 µM. The TGI (MDA-MB-435) was 9.7 µM and 12.4 µM, the GI50 (CAKI-1 renal) was 0.0892 µM and 0.202 µM and the TGI (CAKI-1 renal) was 0.359 µM and 1.59 µM. For the same compound, the GI50 (SK-MEL-5 melanoma) was 5.01 µM and 11.7 µM, the TGI (SK-MEL-5 melanoma) was 11.1 µM and 24.1 µM and the GI50 (LOX IMVI melanoma) was 0.799 µM and 0.552 µM. For the same compound, the TGI (LOX IMVI melanoma) was 7.06 µM and 2.56 µM, the GI50 (SF-268 CNS) was 0.465 µM and 1.73 µM and the TGI (SF-268 CNS) was 3.56 µM and 8.25 µM. For the same compound, the GI50 (OVCAR-5 ovarian) was 8.02 µM and 4.57 µM, the TGI (OVCAR-5 ovarian) was 23.2 µM and > 100 µM and the GI50 (BT-549 breast) was 5.06 µM and 1.46 µM. The TGI (BT-549 breast) was 16.3 µM and 4.68 µM, the GI50 (RXF 393 renal) was 0.308 µM and 1.96 µM and the TGI (RXF 393 renal) was 3.14 µM and 10.9 µM. The GI50 (MDA-MB-231 breast) was 1.26 µM and 1.88 µM, the TGI (MDA-MB-231 breast) was 12.7 µM and 6.41 µM and the GI50 (HCT-15 colon) was 3.13 µM and 2.31 µM. For the same compound, the TGI (HCT-15 colon) was 50 µM and 11.8 µM, the GI50 (CCRF-CEM leukemia) was 0.0409 µM and the TGI (CCRF-CEM leukemia) was greater than 100 µM. The GI50 (SR leukemia) was 0.00899 µM and 0.0247 µM, the GI50 (OVCAR-8 ovarian) was 0.389 µM and 0.517 µM and the TGI (OVCAR-8 ovarian) was 21.4 µM and 3.73 µM. The GI50 (HT29 colon) was 0.622 µM and 1.2 µM, the GI50 (KM12 colon) was 1.03 µM and 3.02 µM and the TGI (KM12 colon) was 6.91 µM and 13.5 µM. The GI50 (NCI-H460 lung) was 1.67 µM and 2.19 µM, the TGI (NCI-H460 lung) was 8.12 µM and 7.8 µM and the GI50 (HCT-116 colon) was 0.06 µM. The TGI (HCT-116 colon) was 0.91 µM, the GI50 (786-0 renal) was 0.334 µM and 2.38 µM and the GI50 (UO-31 renal) was 0.0757 µM and 0.347 µM. The TGI (UO-31 renal) was 0.732 µM and 4.64 µM, the GI50 (SF-295 CNS) was 4.69 µM and 6.95 µM and the TGI (SF-295 CNS) was 15.3 µM and 32 µM. For the same compound, the GI50 (SW-620 colon) was 0.27 µM and 1.34 µM, the GI50 (HCC-2998 colon) was 7.23 µM and 1.24 µM and the TGI (HCC-2998 colon) was 15.6 µM and 2.79 µM. For the same compound, the GI50 (PC-3 prostate) was 2.05 µM, the TGI (PC-3 prostate) was 92.7 µM and the GI50 (HOP-92 NSCLC) was 0.0424 µM and 0.117 µM. The GI50 (U251 CNS) was 0.72 µM and 1.18 µM, the TGI (U251 CNS) was 31.3 µM and 12.9 µM and the GI50 (SK-MEL-28 melanoma) was 3.48 µM and 11.4 µM. The TGI (SK-MEL-28 melanoma) was 13.6 µM and 74.4 µM, the GI50 (UACC-62 melanoma) was 0.853 µM and 2.56 µM and the TGI (UACC-62 melanoma) was 7.81 µM and 13.9 µM. The GI50 (DU-145 prostate) was 1.82 µM and 2.38 µM, the TGI (DU-145 prostate) was 13 µM and 8.09 µM and the GI50 (MOLT-4 leukemia) was 0.0094 µM and 0.0123 µM. For the same compound, the GI50 (SNB-19 CNS) was 6.28 µM and 11.8 µM, the TGI (SNB-19 CNS) was 16.2 µM and 34.2 µM and the GI50 (NCI-H522 lung) was 1.25 µM. The TGI (NCI-H522 lung) was 6.49 µM, the GI50 (MALME-3M melanoma) was 0.769 µM and 1.5 µM and the TGI (MALME-3M melanoma) was 5.77 µM and 5.63 µM. The GI50 (OVCAR-4 ovarian) was 1.29 µM and 3.11 µM, the TGI (OVCAR-4 ovarian) was 16.6 µM and > 100 µM and the GI50 (M14 melanoma) was 1.57 µM and 3.44 µM. The GI50 (UACC-257 melanoma) was 8.21 µM and 2.62 µM, the TGI (UACC-257 melanoma) was 30.8 µM and 13.6 µM and the GI50 (A549 NSCLC) was 10.8 µM and 3.87 µM. For the same compound, the TGI (A549 NSCLC) was 50 µM and 15.7 µM, the GI50 (TK-10 renal) was 5.08 µM and the TGI (TK-10 renal) was 19.2 µM. For the same compound, the GI50 (HOP-62 NSCLC) was 7.51 µM, the TGI (HOP-62 NSCLC) was 21.5 µM and the GI50 (HS 578T breast) was 1.17 µM and 11.5 µM. The GI50 (MCF7 breast) was 0.132 µM and 0.336 µM, the TGI (MCF7 breast) was 0.814 µM and 2.21 µM and the GI50 (SK-OV-3 ovarian) was 1.68 µM and 2.94 µM. The TGI (SK-OV-3 ovarian) was 11.8 µM and 19.6 µM, the GI50 (OVCAR-3 ovarian) was 1.11 µM and 2.41 µM and the TGI (OVCAR-3 ovarian) was 5.18 µM and 7.68 µM. For the same compound, the GI50 (SF-539 CNS) was 0.467 µM and 1.51 µM, the TGI (SF-539 CNS) was 1.24 µM and 3.18 µM and the GI50 (SK-MEL-2 melanoma) was 2.18 µM and 4.29 µM. The TGI (SK-MEL-2 melanoma) was 10.3 µM and > 100 µM, the GI50 (T-47D breast) was 0.162 µM and 0.515 µM and the TGI (T-47D breast) was 2.36 µM and 7.9 µM. For the same compound, the GI50 (NCI-H23 lung) was 5.17 µM and 1.84 µM, the TGI (NCI-H23 lung) was 13.5 µM and 6.43 µM and the GI50 (COLO 205 colon) was 0.681 µM and 1.22 µM. For the same compound, the TGI (COLO 205 colon) was 2.74 µM, the GI50 (RPMI-8226 leukemia) was 0.261 µM and 1.08 µM and the TGI (RPMI-8226 leukemia) was 1.44 µM and 7.64 µM.

Source: PubChem BioAssay (NCI)
